# Reference: the kinase profiling compilation of Christmann-Franck et al. (2016)
# Assays:
# Assay in all cases: radiometric filter-binding kinase assay
# PAK4 (human) = PAK4 (human) (UniProt O96013)
# CSNK1D (human) = CSNK1D (human) (UniProt P48730)
# RPS6KA3 KD1 KD2 (human) = RPS6KA3 KD1 KD2 (human) (UniProt P51812)
# CAMKK2 (human) = CAMKK2 (human) (UniProt Q96RR4)
# CLK2 (human) = CLK2 (human) (UniProt P49760)
# PAK6 (human) = PAK6 (human) (UniProt Q9NQU5)
# PKN2 (human) = PKN2 (human) (UniProt Q16513)
# PIM2 (human) = PIM2 (human) (UniProt Q9P1W9)
# IRAK4 (human) = IRAK4 (human) (UniProt Q9NWZ3)
# NEK2 (human) = NEK2 (human) (UniProt P51955)
# SRPK1 (human) = SRPK1 (human) (UniProt Q96SB4)
# PLK1 (human) = PLK1 (human) (UniProt P53350)
# MARK1 (human) = MARK1 (human) (UniProt Q9P0L2)
# EPHA4 (human) = EPHA4 (human) (UniProt P54764)
# [1] = tested on: AKT2 (human), P31751 [S474D]
# MAPK14 (human) = MAPK14 (human) (UniProt Q16539)
# IKBKE (human) = IKBKE (human) (UniProt Q14164)
# [2] = tested on: PAK2 (human), Q13177 [T402E]
# PAK7 (human) = PAK7 (human) (UniProt Q9P286)
# MARK2 (human) = MARK2 (human) (UniProt Q7KZI7)
# DYRK1A (human) = DYRK1A (human) (UniProt Q13627)
# MAPK3 (human) = MAPK3 (human) (UniProt P27361)
# MST4 (human) = MST4 (human) (UniProt Q9P289)
# PIM3 (human) = PIM3 (human) (UniProt Q86V86)
# MAPKAPK2 (human) = MAPKAPK2 (human) (UniProt P49137)
# [3] = tested on: SGK1 (human), O00141 [S422D]
# MAP3K7 TAB1 (human) = MAP3K7 TAB1 (human) (UniProt Q15750+O43318)
# NEK6 (human) = NEK6 (human) (UniProt Q9HC98)
# HIPK3 (human) = HIPK3 (human) (UniProt Q9H422)
# RIPK2 (human) = RIPK2 (human) (UniProt O43353)
# CHEK1 (human) = CHEK1 (human) (UniProt O14757)
# MAPK15 (human) = MAPK15 (human) (UniProt Q8TD08)
# IGF1R (human) = IGF1R (human) (UniProt P08069)
# MAPK12 (human) = MAPK12 (human) (UniProt P53778)
# RPS6KA5 KD1 KD2 (human) = RPS6KA5 KD1 KD2 (human) (UniProt O75582)
# Sequence of CAMKK2 (human) (Q96RR4 whole entry, looked up): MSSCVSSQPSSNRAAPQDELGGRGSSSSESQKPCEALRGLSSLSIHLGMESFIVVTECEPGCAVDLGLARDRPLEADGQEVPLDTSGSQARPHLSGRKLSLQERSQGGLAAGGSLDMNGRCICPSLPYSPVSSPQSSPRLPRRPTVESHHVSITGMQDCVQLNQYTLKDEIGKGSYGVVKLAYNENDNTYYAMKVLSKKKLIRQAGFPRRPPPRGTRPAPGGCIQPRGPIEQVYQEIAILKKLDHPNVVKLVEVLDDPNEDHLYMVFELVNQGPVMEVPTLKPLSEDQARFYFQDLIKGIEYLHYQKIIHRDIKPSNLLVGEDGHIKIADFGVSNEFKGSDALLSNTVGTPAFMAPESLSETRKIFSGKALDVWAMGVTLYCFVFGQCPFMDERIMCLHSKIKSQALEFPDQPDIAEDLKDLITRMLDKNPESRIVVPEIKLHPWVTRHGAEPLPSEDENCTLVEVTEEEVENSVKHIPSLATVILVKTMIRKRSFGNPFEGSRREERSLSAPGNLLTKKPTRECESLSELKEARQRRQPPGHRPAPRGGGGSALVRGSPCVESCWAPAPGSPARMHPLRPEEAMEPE
# Sequence of SRPK1 (human) (Q96SB4 whole entry, looked up): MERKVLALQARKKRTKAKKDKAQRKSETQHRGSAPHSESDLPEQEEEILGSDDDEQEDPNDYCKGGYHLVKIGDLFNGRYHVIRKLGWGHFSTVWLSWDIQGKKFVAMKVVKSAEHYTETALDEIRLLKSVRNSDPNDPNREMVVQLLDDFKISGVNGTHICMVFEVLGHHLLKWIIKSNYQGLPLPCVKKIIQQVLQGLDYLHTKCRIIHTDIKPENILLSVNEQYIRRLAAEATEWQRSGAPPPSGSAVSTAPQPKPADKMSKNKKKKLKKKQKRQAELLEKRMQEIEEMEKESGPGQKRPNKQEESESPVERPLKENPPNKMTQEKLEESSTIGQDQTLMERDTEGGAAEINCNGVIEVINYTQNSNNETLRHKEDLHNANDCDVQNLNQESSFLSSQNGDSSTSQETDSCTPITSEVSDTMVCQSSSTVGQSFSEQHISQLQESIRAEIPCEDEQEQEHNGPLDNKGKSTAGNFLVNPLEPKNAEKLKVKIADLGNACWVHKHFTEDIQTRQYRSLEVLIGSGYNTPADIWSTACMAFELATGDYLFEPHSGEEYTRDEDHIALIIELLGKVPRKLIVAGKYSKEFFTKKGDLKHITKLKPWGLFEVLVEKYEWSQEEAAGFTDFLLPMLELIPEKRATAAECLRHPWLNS
# Sequence of MAPK15 (human) (Q8TD08 whole entry, looked up): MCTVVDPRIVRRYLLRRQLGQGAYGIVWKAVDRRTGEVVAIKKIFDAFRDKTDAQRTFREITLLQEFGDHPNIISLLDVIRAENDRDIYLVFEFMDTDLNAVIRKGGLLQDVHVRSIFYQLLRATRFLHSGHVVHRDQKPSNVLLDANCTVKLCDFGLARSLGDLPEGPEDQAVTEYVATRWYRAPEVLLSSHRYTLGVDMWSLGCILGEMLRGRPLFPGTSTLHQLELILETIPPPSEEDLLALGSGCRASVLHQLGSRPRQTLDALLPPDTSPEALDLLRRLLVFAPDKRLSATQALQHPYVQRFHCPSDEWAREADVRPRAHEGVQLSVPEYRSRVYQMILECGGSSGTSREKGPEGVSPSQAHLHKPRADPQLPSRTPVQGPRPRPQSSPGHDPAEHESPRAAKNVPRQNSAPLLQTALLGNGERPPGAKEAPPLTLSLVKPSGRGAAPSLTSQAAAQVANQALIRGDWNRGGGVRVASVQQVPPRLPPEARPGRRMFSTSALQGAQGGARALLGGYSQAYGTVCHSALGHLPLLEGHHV
# Sequence of CHEK1 (human) (O14757 whole entry, looked up): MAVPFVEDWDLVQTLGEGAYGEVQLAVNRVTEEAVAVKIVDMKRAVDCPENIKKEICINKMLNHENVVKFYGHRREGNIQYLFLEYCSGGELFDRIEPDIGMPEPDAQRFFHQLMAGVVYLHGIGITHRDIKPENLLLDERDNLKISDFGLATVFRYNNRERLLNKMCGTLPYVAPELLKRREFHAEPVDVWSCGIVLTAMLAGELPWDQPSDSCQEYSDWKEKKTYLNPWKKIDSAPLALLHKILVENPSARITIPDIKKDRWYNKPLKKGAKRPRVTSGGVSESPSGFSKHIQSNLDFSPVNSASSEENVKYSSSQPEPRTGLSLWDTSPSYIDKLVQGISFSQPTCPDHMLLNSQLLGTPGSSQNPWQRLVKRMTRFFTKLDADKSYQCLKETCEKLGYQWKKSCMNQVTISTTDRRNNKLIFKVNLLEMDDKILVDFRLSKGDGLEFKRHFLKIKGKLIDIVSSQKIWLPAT
# Sequence of SGK1 (human), O00141 [S422D] (O00141 whole entry S422D, looked up): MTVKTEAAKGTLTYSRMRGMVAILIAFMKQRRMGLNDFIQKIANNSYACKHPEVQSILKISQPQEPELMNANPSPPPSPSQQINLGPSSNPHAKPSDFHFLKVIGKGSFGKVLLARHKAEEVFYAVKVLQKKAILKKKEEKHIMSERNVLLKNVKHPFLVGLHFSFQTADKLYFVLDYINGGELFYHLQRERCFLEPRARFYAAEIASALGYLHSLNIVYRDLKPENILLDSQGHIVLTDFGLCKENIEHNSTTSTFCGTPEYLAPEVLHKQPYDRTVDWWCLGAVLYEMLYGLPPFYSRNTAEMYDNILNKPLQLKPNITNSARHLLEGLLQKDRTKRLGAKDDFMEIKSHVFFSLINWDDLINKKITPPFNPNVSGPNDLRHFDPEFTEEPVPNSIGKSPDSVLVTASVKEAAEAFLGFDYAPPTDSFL
# Sequence of MAPK14 (human) (Q16539 whole entry, looked up): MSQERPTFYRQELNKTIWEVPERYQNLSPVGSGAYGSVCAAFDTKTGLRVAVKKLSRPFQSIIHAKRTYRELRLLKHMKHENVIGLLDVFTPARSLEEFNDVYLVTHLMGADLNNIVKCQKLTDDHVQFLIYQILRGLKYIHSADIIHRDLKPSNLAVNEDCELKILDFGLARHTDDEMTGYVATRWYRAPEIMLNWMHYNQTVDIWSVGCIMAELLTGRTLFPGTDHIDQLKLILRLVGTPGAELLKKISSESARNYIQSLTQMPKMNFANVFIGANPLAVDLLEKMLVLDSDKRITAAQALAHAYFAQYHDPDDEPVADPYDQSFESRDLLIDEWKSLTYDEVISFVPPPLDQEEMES
# Sequence of CSNK1D (human) (P48730 whole entry, looked up): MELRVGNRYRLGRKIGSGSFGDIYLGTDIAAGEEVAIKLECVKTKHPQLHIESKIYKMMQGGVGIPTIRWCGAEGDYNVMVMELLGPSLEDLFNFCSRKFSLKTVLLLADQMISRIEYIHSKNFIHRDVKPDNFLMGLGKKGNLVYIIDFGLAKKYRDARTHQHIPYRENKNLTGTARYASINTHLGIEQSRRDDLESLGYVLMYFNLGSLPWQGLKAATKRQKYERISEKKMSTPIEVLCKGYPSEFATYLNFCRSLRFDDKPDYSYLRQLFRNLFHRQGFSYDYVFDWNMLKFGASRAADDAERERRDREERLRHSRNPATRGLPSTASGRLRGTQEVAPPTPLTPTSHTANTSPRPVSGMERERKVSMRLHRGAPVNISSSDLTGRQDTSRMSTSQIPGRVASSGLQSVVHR
# Sequence of IKBKE (human) (Q14164 whole entry, looked up): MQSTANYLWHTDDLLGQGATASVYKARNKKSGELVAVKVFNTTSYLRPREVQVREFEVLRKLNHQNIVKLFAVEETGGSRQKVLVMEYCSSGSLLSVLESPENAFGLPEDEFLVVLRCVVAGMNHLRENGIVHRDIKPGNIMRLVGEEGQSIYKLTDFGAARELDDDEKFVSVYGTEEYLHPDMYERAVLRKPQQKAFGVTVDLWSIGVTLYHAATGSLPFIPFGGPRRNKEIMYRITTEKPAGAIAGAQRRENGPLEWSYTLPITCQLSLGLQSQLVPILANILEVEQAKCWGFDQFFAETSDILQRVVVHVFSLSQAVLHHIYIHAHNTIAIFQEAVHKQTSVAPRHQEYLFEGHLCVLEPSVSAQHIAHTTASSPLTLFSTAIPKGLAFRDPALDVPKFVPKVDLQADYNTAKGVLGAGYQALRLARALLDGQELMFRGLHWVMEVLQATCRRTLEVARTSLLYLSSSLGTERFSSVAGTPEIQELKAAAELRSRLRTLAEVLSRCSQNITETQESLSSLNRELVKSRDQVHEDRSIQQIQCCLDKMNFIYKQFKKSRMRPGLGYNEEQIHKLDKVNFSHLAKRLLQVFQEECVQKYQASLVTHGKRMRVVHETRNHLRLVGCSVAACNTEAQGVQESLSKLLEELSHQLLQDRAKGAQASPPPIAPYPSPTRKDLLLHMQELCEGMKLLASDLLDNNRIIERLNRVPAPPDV
# Sequence of CLK2 (human) (P49760 whole entry, looked up): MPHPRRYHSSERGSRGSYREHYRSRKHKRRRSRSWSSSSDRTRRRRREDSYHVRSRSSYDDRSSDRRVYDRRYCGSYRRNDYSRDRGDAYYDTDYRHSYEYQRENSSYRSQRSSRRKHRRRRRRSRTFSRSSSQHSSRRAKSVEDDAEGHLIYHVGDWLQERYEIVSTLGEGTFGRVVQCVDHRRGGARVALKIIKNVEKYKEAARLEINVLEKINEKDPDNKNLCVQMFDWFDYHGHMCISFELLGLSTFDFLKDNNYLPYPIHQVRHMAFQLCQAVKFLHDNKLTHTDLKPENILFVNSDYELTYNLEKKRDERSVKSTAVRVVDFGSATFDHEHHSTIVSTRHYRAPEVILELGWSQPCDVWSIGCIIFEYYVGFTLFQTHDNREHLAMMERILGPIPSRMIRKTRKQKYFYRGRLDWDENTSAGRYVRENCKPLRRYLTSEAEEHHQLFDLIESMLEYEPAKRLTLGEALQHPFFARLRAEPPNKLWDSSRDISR
# Sequence of NEK6 (human) (Q9HC98 whole entry, looked up): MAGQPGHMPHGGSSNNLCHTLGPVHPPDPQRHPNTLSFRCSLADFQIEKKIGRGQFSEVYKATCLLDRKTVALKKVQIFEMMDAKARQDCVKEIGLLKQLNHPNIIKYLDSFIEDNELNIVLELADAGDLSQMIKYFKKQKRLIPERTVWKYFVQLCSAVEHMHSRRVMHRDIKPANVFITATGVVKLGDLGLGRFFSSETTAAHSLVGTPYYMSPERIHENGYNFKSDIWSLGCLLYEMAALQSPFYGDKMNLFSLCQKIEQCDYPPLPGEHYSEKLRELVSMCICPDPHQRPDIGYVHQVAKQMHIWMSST
structure (smiles),measurement,setting,value
CC(C)C[C@H](NC(=O)CNC(=O)c1cc(Cl)ccc1Cl)B1OC(=O)CC(CC(=O)O)(C(=O)O)O1 (some centres not stated),residual activity,PAK4 (human); compound 10.0 µM,77%
same,residual activity,CSNK1D (human); compound 10.0 µM,81%
same,residual activity,RPS6KA3 KD1 KD2 (human); compound 10.0 µM,94%
same,residual activity,CAMKK2 (human); compound 10.0 µM,86%
same,residual activity,CLK2 (human); compound 10.0 µM,79%
same,residual activity,PAK6 (human); compound 10.0 µM,68%
same,residual activity,PKN2 (human); compound 10.0 µM,86%
same,residual activity,PIM2 (human); compound 10.0 µM,94%
same,residual activity,IRAK4 (human); compound 10.0 µM,79%
same,residual activity,NEK2 (human); compound 10.0 µM,94%
same,residual activity,SRPK1 (human); compound 10.0 µM,90%
same,residual activity,PLK1 (human); compound 10.0 µM,97%
same,residual activity,MARK1 (human); compound 10.0 µM,81%
same,residual activity,EPHA4 (human); compound 10.0 µM,69%
same,residual activity,[1]; compound 10.0 µM,82%
same,residual activity,MAPK14 (human); compound 10.0 µM,88%
same,residual activity,IKBKE (human); compound 10.0 µM,91%
same,residual activity,[2]; compound 10.0 µM,92%
same,residual activity,PAK7 (human); compound 10.0 µM,94%
same,residual activity,MARK2 (human); compound 10.0 µM,81%
same,residual activity,DYRK1A (human); compound 10.0 µM,88%
same,residual activity,MAPK3 (human); compound 10.0 µM,106%
same,residual activity,MST4 (human); compound 10.0 µM,122%
same,residual activity,PIM3 (human); compound 10.0 µM,92%
same,residual activity,MAPKAPK2 (human); compound 10.0 µM,88%
same,residual activity,[3]; compound 10.0 µM,78%
same,residual activity,MAP3K7 TAB1 (human); compound 10.0 µM,127%
same,residual activity,NEK6 (human); compound 10.0 µM,82%
same,residual activity,HIPK3 (human); compound 10.0 µM,118%
same,residual activity,RIPK2 (human); compound 10.0 µM,91%
same,residual activity,CHEK1 (human); compound 10.0 µM,107%
same,residual activity,MAPK15 (human); compound 10.0 µM,100%
same,residual activity,IGF1R (human); compound 10.0 µM,87%
C=C1C(=O)OC2C1CC/C(C)=C/CCC1(C)OC21 (configuration not stated),residual activity,PAK4 (human); compound 1.0 µM,93%
same,residual activity,PAK4 (human); compound 5.0 µM,104%
same,residual activity,CSNK1D (human); compound 1.0 µM,99%
same,residual activity,RPS6KA3 KD1 KD2 (human); compound 1.0 µM,102%
same,residual activity,RPS6KA3 KD1 KD2 (human); compound 5.0 µM,94%
same,residual activity,CLK2 (human); compound 1.0 µM,90%
same,residual activity,CLK2 (human); compound 5.0 µM,93%
same,residual activity,PAK6 (human); compound 1.0 µM,119%
same,residual activity,PAK6 (human); compound 5.0 µM,115%
same,residual activity,PKN2 (human); compound 1.0 µM,106%
same,residual activity,PKN2 (human); compound 5.0 µM,102%
same,residual activity,PIM2 (human); compound 1.0 µM,110%
same,residual activity,PIM2 (human); compound 5.0 µM,102%
same,residual activity,IRAK4 (human); compound 1.0 µM,106%
same,residual activity,IRAK4 (human); compound 5.0 µM,97%
same,residual activity,NEK2 (human); compound 1.0 µM,110%
same,residual activity,SRPK1 (human); compound 1.0 µM,111%
same,residual activity,SRPK1 (human); compound 5.0 µM,106%
same,residual activity,PLK1 (human); compound 1.0 µM,103%
same,residual activity,PLK1 (human); compound 5.0 µM,103%
same,residual activity,MARK1 (human); compound 1.0 µM,100%
same,residual activity,MARK1 (human); compound 5.0 µM,94%
same,residual activity,EPHA4 (human); compound 1.0 µM,110%
same,residual activity,EPHA4 (human); compound 5.0 µM,87%
same,residual activity,[1]; compound 1.0 µM,101%
same,residual activity,[1]; compound 5.0 µM,92%
same,residual activity,MAPK14 (human); compound 1.0 µM,105%
same,residual activity,MAPK14 (human); compound 5.0 µM,111%
same,residual activity,IKBKE (human); compound 1.0 µM,112%
same,residual activity,IKBKE (human); compound 5.0 µM,108%
same,residual activity,[2]; compound 1.0 µM,102%
same,residual activity,[2]; compound 5.0 µM,103%
same,residual activity,PAK7 (human); compound 1.0 µM,117%
same,residual activity,PAK7 (human); compound 5.0 µM,98%
same,residual activity,MARK2 (human); compound 1.0 µM,112%
same,residual activity,MARK2 (human); compound 5.0 µM,102%
same,residual activity,DYRK1A (human); compound 1.0 µM,120%
same,residual activity,DYRK1A (human); compound 5.0 µM,101%
same,residual activity,MAPK3 (human); compound 1.0 µM,105%
same,residual activity,MAPK3 (human); compound 5.0 µM,103%
same,residual activity,MST4 (human); compound 1.0 µM,88%
same,residual activity,MST4 (human); compound 5.0 µM,94%
same,residual activity,PIM3 (human); compound 1.0 µM,119%
same,residual activity,PIM3 (human); compound 5.0 µM,121%
same,residual activity,MAPKAPK2 (human); compound 1.0 µM,72%
same,residual activity,MAPKAPK2 (human); compound 5.0 µM,64%
same,residual activity,[3]; compound 5.0 µM,115%
same,residual activity,MAP3K7 TAB1 (human); compound 1.0 µM,109%
same,residual activity,NEK6 (human); compound 1.0 µM,113%
same,residual activity,NEK6 (human); compound 5.0 µM,82%
same,residual activity,HIPK3 (human); compound 1.0 µM,110%
same,residual activity,HIPK3 (human); compound 5.0 µM,122%
same,residual activity,RIPK2 (human); compound 1.0 µM,101%
same,residual activity,RIPK2 (human); compound 5.0 µM,112%
same,residual activity,CHEK1 (human); compound 1.0 µM,123%
same,residual activity,CHEK1 (human); compound 5.0 µM,98%
same,residual activity,MAPK12 (human); compound 1.0 µM,108%
same,residual activity,MAPK12 (human); compound 5.0 µM,115%
same,residual activity,MAPK15 (human); compound 1.0 µM,98%
same,residual activity,MAPK15 (human); compound 5.0 µM,119%
same,residual activity,IGF1R (human); compound 1.0 µM,120%
same,residual activity,IGF1R (human); compound 5.0 µM,109%
same,residual activity,RPS6KA5 KD1 KD2 (human); compound 1.0 µM,110%
same,residual activity,RPS6KA5 KD1 KD2 (human); compound 5.0 µM,106%
COc1cc2ncn(-c3cc(OCc4ccccc4S(C)(=O)=O)c(C#N)s3)c2cc1OC,residual activity,PAK4 (human); compound 1.0 µM,53%
same,residual activity,PAK4 (human); compound 10.0 µM,41%
same,residual activity,CSNK1D (human); compound 1.0 µM,89%
same,residual activity,CSNK1D (human); compound 10.0 µM,91%
same,residual activity,RPS6KA3 KD1 KD2 (human); compound 1.0 µM,82%
same,residual activity,RPS6KA3 KD1 KD2 (human); compound 10.0 µM,57%
same,residual activity,CAMKK2 (human); compound 1.0 µM,112%
same,residual activity,CAMKK2 (human); compound 10.0 µM,86%
same,residual activity,CLK2 (human); compound 10.0 µM,18%
same,residual activity,PAK6 (human); compound 1.0 µM,95%
same,residual activity,PAK6 (human); compound 10.0 µM,67%
same,residual activity,PKN2 (human); compound 1.0 µM,63%
same,residual activity,PKN2 (human); compound 10.0 µM,64%
same,residual activity,PIM2 (human); compound 1.0 µM,93%
same,residual activity,PIM2 (human); compound 10.0 µM,78%
same,residual activity,IRAK4 (human); compound 1.0 µM,13%
same,residual activity,IRAK4 (human); compound 10.0 µM,6%
same,residual activity,NEK2 (human); compound 1.0 µM,41%
same,residual activity,NEK2 (human); compound 10.0 µM,39%
same,residual activity,SRPK1 (human); compound 1.0 µM,93%
same,residual activity,SRPK1 (human); compound 10.0 µM,79%
same,residual activity,PLK1 (human); compound 1.0 µM,65%
same,residual activity,PLK1 (human); compound 10.0 µM,55%
same,residual activity,MARK1 (human); compound 1.0 µM,33%
same,residual activity,MARK1 (human); compound 10.0 µM,31%
same,residual activity,EPHA4 (human); compound 1.0 µM,57%
same,residual activity,EPHA4 (human); compound 10.0 µM,45%
same,residual activity,[1]; compound 1.0 µM,72%
same,residual activity,[1]; compound 10.0 µM,98%
same,residual activity,MAPK14 (human); compound 1.0 µM,91%
same,residual activity,MAPK14 (human); compound 10.0 µM,85%
same,residual activity,IKBKE (human); compound 1.0 µM,9%
same,residual activity,IKBKE (human); compound 10.0 µM,6%
same,residual activity,[2]; compound 1.0 µM,94%
same,residual activity,[2]; compound 10.0 µM,111%
same,residual activity,PAK7 (human); compound 1.0 µM,80%
same,residual activity,PAK7 (human); compound 10.0 µM,58%
same,residual activity,MARK2 (human); compound 1.0 µM,39%
same,residual activity,MARK2 (human); compound 10.0 µM,35%
same,residual activity,DYRK1A (human); compound 1.0 µM,73%
same,residual activity,DYRK1A (human); compound 10.0 µM,81%
same,residual activity,MAPK3 (human); compound 1.0 µM,101%
same,residual activity,MAPK3 (human); compound 10.0 µM,77%
same,residual activity,MST4 (human); compound 10.0 µM,47%
same,residual activity,PIM3 (human); compound 1.0 µM,90%
same,residual activity,PIM3 (human); compound 10.0 µM,73%
same,residual activity,MAPKAPK2 (human); compound 1.0 µM,99%
same,residual activity,MAPKAPK2 (human); compound 10.0 µM,85%
same,residual activity,[3]; compound 1.0 µM,105%
same,residual activity,MAP3K7 TAB1 (human); compound 1.0 µM,100%
same,residual activity,MAP3K7 TAB1 (human); compound 10.0 µM,70%
same,residual activity,NEK6 (human); compound 1.0 µM,93%
same,residual activity,NEK6 (human); compound 10.0 µM,77%
same,residual activity,HIPK3 (human); compound 1.0 µM,102%
same,residual activity,HIPK3 (human); compound 10.0 µM,61%
same,residual activity,RIPK2 (human); compound 1.0 µM,14%
same,residual activity,RIPK2 (human); compound 10.0 µM,6%
same,residual activity,CHEK1 (human); compound 1.0 µM,79%
same,residual activity,CHEK1 (human); compound 10.0 µM,64%
same,residual activity,MAPK15 (human); compound 1.0 µM,65%
same,residual activity,MAPK15 (human); compound 10.0 µM,15%
same,residual activity,IGF1R (human); compound 1.0 µM,89%
same,residual activity,IGF1R (human); compound 10.0 µM,92%
same,residual activity,RPS6KA5 KD1 KD2 (human); compound 1.0 µM,78%
same,residual activity,RPS6KA5 KD1 KD2 (human); compound 10.0 µM,58%
